Literature values, collected in patent US20160206641A1, “RAPIDLY-[…] FILM FORMULATION OF WATER SOLUBLE […] GLYCOSIDE FOR THE TREATMENT OF […] DISEASE” (LUMINUS BIOSCIENCES INC., priority 2013, published 2016).
≈ marks a conversion by molar mass, not a printed value.

C[C@@H]1O[C@@H](O[C@H]2C[C@@H](O)[C@]3(CO)[C@H]4[C@H](O)C[C@]5(C)[C@@H](C6=CC(=O)OC6)CC[C@]5(O)[C@@H]4CC[C@]3(O)C2)[C@H](O)[C@H](O)[C@H]1O [ouabain, 1β,3β,5β,11α,14,19-Hexahydroxycard-20(22)-enolide 3-(6-deoxy-α-L-mannopyranoside)]
solubility in cold water (cold water): 10 mg/mL (≈ 17.1 mM)
solubility in hot water (hot water): more than 50 mg/ml
